Source: patent US12637452B2, “Crystalline forms of a substituted imidazopyridine compound and use thereof as P2X3 modulator” (GlaxoSmithKline Intellectual Property (No. 3) Limited, priority 2018, dated 2026)
Values after ≈ are worked out from the molar mass of the structure shown.

Legend:
Assay type in all cases: physicochemical
[1] = Approximate solubility of starting material in 28 solvents at RT; settings: 25 °C, thermodynamic from solid, starting material Form A0
Description: Approximate solubility of starting material (Compound 1, Form A0) was determined in 28 solvents at RT (25±3° C.). ˜2 mg of the starting material was added into each 3-mL glass vial. Solvents were then added stepwise (50/50/200/700 μL per step) into the vials until the solids were dissolved visually or a total volume of 1 mL was reached. Solubility results summarized in Table 2 were used to guide the solvent selection in screening design.

[2] = Dynamic vapor sorption (DVS) test, water uptake and form stability as a function of relative humidity
Description: DVS test was performed using an SMS (Surface Measurement Systems) DVS Intrinsic instrument. The relative humidity were calibrated against deliquescence point of LiCl, Mg(NO3)2 and KCl. The following instrument parameters were used at 25° C. and 40° C.:
DVS test was performed for Type A* family to investigate its form stability as a function of relative humidity. The DVS test was first conducted in a couple of cycles with different ends (30% and 95% RH) at 25° C. The samples were equilibrated at each RH point until wt % change was lower than 0.002% or the total time reached 3 hrs.
The crystal forms after DVS test were detected by XRPD. For the cycle (ambient RH-95% RH-0% RH-30% RH), the crystal form after DVS test was determined to be Type A (FIG. 5), corresponding to the ambient humidity (61.5% RH) when performing XRPD analysis. While for the cycle (ambient RH-95% RH-0% RH-95% RH), Type A1 was observed after DVS test (FIG. 7), corresponding to the ambient humidity (66.3% RH) when performing XRPD analysis.
DVS test was also conducted in the cycle (ambient RH-95% RH-0% RH-95% RH) at 40° C.

[3] = Theoretical maxima water uptake of a monohydrate from the single crystal structure; settings: only lattice waters considered
Description: A single crystal structure of Compound 1 Type A* family (form Type A0) was collected using crystals grown in ACN/H2O (1:3, v/v). Data were collected at 123 K using a Bruker D8 VENTURE diffractometer (Mo/Kα λ=0.71073 Å) with the following instrument parameters:
From the single crystal structure, there are four possible hydration sites in the unit cell. If each of the hydration sites is occupied by one water molecule, a monohydrate would be expected, which should correspond to the theoretical maxima water incorporation in the crystal lattice of Type A* family crystals. For a monohydrate, if only lattice waters are considered, the theoretical maxima water uptake is 3.9%, which is very close to the experimental DVS results (˜4.1-4.2% at 100% RH at 25° C.). In addition, there may be less than one water molecule on each hydration site because of the disorder, and a stoichiometry of less than 1:1 for water:API may be expected in an actual Type A* family crystal which is consistent with the almost linear increase/decrease of water content as a function of humidity in the DVS test.

CNC(=O)c1cc(F)c(-c2nc3cc(C)ccn3c2C[C@H]2CN(C(=O)OC)CCO2)c(F)c1 [Compound 1, methyl (S)-2-((2-(2,6-difluoro-4-(methylcarbamoyl)phenyl)-7-methylimidazo[1,2-a]pyridin-3-yl)methyl)morpholine-4-carboxylate]
solubility ([1]; organic solvent or mixture, solvent 1,2-Dichloroethane, RT (25±3° C.)): > 38000 µg/mL
solubility ([1]; organic solvent or mixture, solvent 1,4-Dioxane, RT (25±3° C.)): 2400 to 8000 µg/mL (≈ 5.23 to 17.4 mM)
solubility ([1]; organic solvent or mixture, solvent 1-Propanol, RT (25±3° C.)): > 38000 µg/mL
solubility ([1]; organic solvent or mixture, solvent 2-MeTHF, RT (25±3° C.)): 1800 to 6000 µg/mL (≈ 3.93 to 13.1 mM)
solubility ([1]; organic solvent or mixture, solvent ACN, RT (25±3° C.)): 20000 to 40000 µg/mL (≈ 43.6 to 87.2 mM)
solubility ([1]; organic solvent or mixture, solvent Acetone, RT (25±3° C.)): 19000 to 38000 µg/mL (≈ 41.4 to 82.9 mM)
solubility ([1]; organic solvent or mixture, solvent Anisole, RT (25±3° C.)): 2000 to 6700 µg/mL (≈ 4.36 to 14.6 mM)
solubility ([1]; organic solvent or mixture, solvent Butyl acetate, RT (25±3° C.)): < 2400 µg/mL
solubility ([1]; organic solvent or mixture, solvent CHCl3, RT (25±3° C.)): > 40000 µg/mL
solubility ([1]; organic solvent or mixture, solvent DCM, RT (25±3° C.)): > 40000 µg/mL
solubility ([1]; organic solvent or mixture, solvent DMF, RT (25±3° C.)): > 38000 µg/mL
solubility ([1]; organic solvent or mixture, solvent DMSO, RT (25±3° C.)): > 48000 µg/mL
solubility ([1]; organic solvent or mixture, solvent Diethyleneglycol, RT (25±3° C.)): 2400 to 8000 µg/mL (≈ 5.23 to 17.4 mM)
solubility ([1]; organic solvent or mixture, solvent Dimethoxyethane, RT (25±3° C.)): 6700 to 20000 µg/mL (≈ 14.6 to 43.6 mM)
solubility ([1]; organic solvent or mixture, solvent EtOAc, RT (25±3° C.)): < 2000 µg/mL
solubility ([1]; organic solvent or mixture, solvent EtOH, RT (25±3° C.)): > 46000 µg/mL
solubility ([1]; organic solvent or mixture, solvent IPA, RT (25±3° C.)): 20000 to 40000 µg/mL (≈ 43.6 to 87.2 mM)
solubility ([1]; organic solvent or mixture, solvent IPAc, RT (25±3° C.)): < 1900 µg/mL
solubility ([1]; organic solvent or mixture, solvent MEK, RT (25±3° C.)): 7700 to 23000 µg/mL (≈ 16.8 to 50.2 mM)
solubility ([1]; organic solvent or mixture, solvent MIBK, RT (25±3° C.)): < 2200 µg/mL
solubility ([1]; organic solvent or mixture, solvent MTBE, RT (25±3° C.)): < 2200 µg/mL
solubility ([1]; organic solvent or mixture, solvent MeOH, RT (25±3° C.)): > 44000 µg/mL
solubility ([1]; organic solvent or mixture, solvent THF, RT (25±3° C.)): > 46000 µg/mL
solubility ([1]; organic solvent or mixture, solvent Toluene, RT (25±3° C.)): < 2000 µg/mL
solubility ([1]; organic solvent or mixture, solvent n-Butanol, RT (25±3° C.)): > 42000 µg/mL
solubility ([1]; organic solvent or mixture, solvent n-Heptane, RT (25±3° C.)): < 1900 µg/mL
solubility ([1]; organic solvent or mixture, solvent n-Hexane, RT (25±3° C.)): < 2200 µg/mL
solubility ([1]; water, solvent H2O, RT (25±3° C.)): < 2400 µg/mL

CNC(=O)c1cc(F)c(-c2nc3cc(C)ccn3c2C[C@H]2CN(C(=O)OC)CCO2)c(F)c1 [Type A* family, methyl (S)-2-((2-(2,6-difluoro-4-(methylcarbamoyl)phenyl)-7-methylimidazo[1,2-a]pyridin-3-yl)methyl)morpholine-4-carboxylate]
crystal form after DVS test (XRPD) ([2]; 25° C., cycle ambient RH-95% RH-0% RH-30% RH, ambient humidity 61.5% RH at XRPD analysis): Type A
crystal form after DVS test (XRPD) ([2]; 25° C., cycle ambient RH-95% RH-0% RH-95% RH, ambient humidity 66.3% RH at XRPD analysis): Type A1
crystal form after DVS test (XRPD) ([2]; 40° C., cycle ambient RH-95% RH-0% RH-95% RH, ambient humidity 69.5% RH at XRPD test): Type A1
water uptake, experimental DVS results ([2]; at 100% RH at 25° C.): 4.1-4.2%
theoretical maxima water uptake [3]: 3.9%
